Reference: patent publication US20250354049A1, “CORROSION-INHIBITING AGENTS FOR REDUCING DISSOLVED OXYGEN CONCENTRATIONS WITHIN UPSTREAM OILFIELD SYSTEMS” (Finoric LLC, priority 2024, published 2025)
In brackets after ≈: the same amount, converted by molar mass. Entries after “also recorded” stand apart in the source; their conditions may differ. Where two headings read alike, the source gives them in different places.

How the values were obtained:
[1] = cited from earlier work
[2] = Example 1: oxygen scavenging in deionized water, impact of temperature and activator; conditions: for dissolved oxygen scavenged: absence of catalyst, after 6 h, pH ~6.4, deionized water; for dissolved oxygen scavenged / time until all detectable dissolved oxygen was scavenged: 200 ppm; for time until all detectable dissolved oxygen was scavenged: with activator CuSO4·5H2O 10 ppm, pH ~6.4
Protocol: To prepare the experiment, 500 mL of deionized water (saturated with dissolved oxygen) was placed in a 3-neck round bottom flask, and a calibrated dissolved oxygen probe was inserted into the center neck. FIG. 5 provides picture 500 of the experiment setup. The water was stirred magnetically, and the pH and temperature were adjusted to the indicated values. Temperature was controlled by heating in a water bath, and pH was adjusted to ˜6.4 with dilute hydrogen chloride (HCl). […] The corrosion-inhibiting agent and activator (if used) were injected via micropipette through one of the side necks in the flask. […] The flask was then sealed and dissolved oxygen was monitored continuously as a function of time.

[3] = Example 6: oxygen scavenging in deionized water with and without P110 steel coupon
Protocol: For a first test, no steel coupon was present but for a second test, a P110 steel coupon was suspended in the water. The dissolved oxygen was measured as a function of time at room temperature (˜ 70° F.) for both tests. FIG. 10 provides a picture 1000 of the second test in which the steel coupon was submerged in the deionized water within the glass vessel.
At the 180 min mark, the temperature was increased from 70° F. to 100° F. in both tests.

[4] = solvents named; cited from earlier work
[5] = cited from earlier work; remark: listed apart in the source
[6] = second test, P110 steel coupon present, 200 ppm, ~70° F.

N.O=S(O)O [Ammonium bisulfite]
~pKa [1]: 7

O=C1O[C@H]([C@@H](O)CO)C(O)=C1O [Ascorbic Acid]
reaction with dissolved oxygen (in words) ([2]; absence of activator, FIG. 6 solid lines): relatively sluggish
dissolved oxygen scavenged ([2]; 100° F.): approximately 35%
dissolved oxygen scavenged ([2]; 135° F.): ~93%
reaction rate with dissolved oxygen (in words) ([2]; copper catalyst (CuSO4·5H2O) added, FIG. 6 dashed lines): significant increase in reaction rate
time until all detectable dissolved oxygen was scavenged ([2]; 100° F.): ≤ 2 min
time until all detectable dissolved oxygen was scavenged ([2]; ambient temperature (72° F.)): ≤ 15 min
dissolved oxygen left behind ([3]; after temperature increased from 70° F. to 100° F. at the 180 min mark): ~0.37 ppm
dissolved oxygen after bolus of copper catalyst ([3]; copper catalyst (10 ppm) injected at the 235 min mark, 100° F.): non-detectable levels
dissolved oxygen concentration after 4 h ([3]; first test without coupon, 200 ppm, dropped from 9.05 ppm, room temperature (~70° F.)): 5.23 ppm
reaction with dissolved oxygen (in words) ([3]; first test without coupon, 200 ppm, ~70° F.): only a slow reaction was observed
rate of reaction with dissolved oxygen (in words) [3, 6]: increased significantly
time after which the scavenging reaction stalled [3, 6]: 180 min

NNC(=O)NN [Carbohydrazide]
Solubility in Other Solvents [4]: ethanol
Solubility in Water (in words) [5]: Very
~pKa [1]: 11.81

CCN(O)CC [Diethylhydroxylamine (DEHA), diethylhydroxylamine]
Solubility in Water (in words) [5]: Miscible
~pKa [1]: 5.7

NN [Hydrazine]
Solubility in Other Solvents [4]: Ethanol,; also recorded: methanol
Solubility in Water (in words) [5]: Miscible
~pKa [1]: 8-9

Oc1ccc(O)cc1 [Hydroquinone (HQ), Hydroquinone]
Solubility in Other Solvents [4]: Ethanol,; also recorded: acetone
Solubility in Water [5]: 59 mg/mL (≈ 536 mM)
~pKa [1]: 9.9

CCC(C)=NO [Methylethylketoxime (MEKO), Methylethylketoxime]
Solubility in Other Solvents [4]: Ethanol
Solubility in Water (in words) [5]: Miscible

O=S([O-])O.[Na+] [Sodium Bisulfite]
~pKa [1]: ~7
~pKa ([1]; listed as sodium bisulfite): ~7

O=S([O-])S(=O)(=O)[O-].[Na+].[Na+] [Sodium Metabisulfite, reference compound]
Solubility in Other Solvents [4]: Glycerol,; also recorded: ethanol
Solubility in Water [5]: 653 mg/mL
~pKa [1]: ~1.8

O=S([O-])[O-].[Na+].[Na+] [Sodium Sulfite]
~pKa [1]: ~9
~pKa ([1]; listed as sodium sulfite): ~9

O=S([O-])([O-])=S.[Na+].[Na+] [Sodium Thiosulfate]
~pKa [1]: 1.74
